Results on seven compounds are retold here after US20070270350A1, “Methods and Compositions for the Prevention and Treatment of Inflammatory Diseases or Conditions” (MUSC FOUNDATION FOR RESEARCH DEVELOPMENT, priority 2003, published 2007).

Data set [1] has as its system iNOS. Put plainly: LPS/IFN-induced NO production and iNOS gene expression in primary astrocytes. In kind it is cell-based, rat. As to conditions: for effect on D-PDMP mediated inhibition of NO production: glycosphingolipid 5 and 10 μM added with D-PDMP 50 μM, 0.5 hr before LPS/IFN.
In data set [2] the test system is iNOS. The data set is described as follows: LPS/IFN-induced NO production and iNOS expression in C6 glioma cells. The conditions noted are these: exogenous glycosphingolipid with D-PDMP. Format: cell-based, rat. The procedure: C6 rat glioma cells obtained from ATCC were maintained in Dulbecco's modified Eagle's medium (DMEM) (GIBCO, CA) containing 10% fetal bovine serum (FBS) (GIBCO) and 10 ? g/ml gentamicin. All the cultured cells were maintained at 37° C. in 5% CO2/95% air. At 80% confluency, the cells were incubated with serum free DMEM medium for 24 h prior to the incubation with LPS/IFN ? and other chemicals. Assay for NO production. Cells were cultured in 12-well plastic tissue culture plates. After the appropriate treatment, production of NO was determined by an assay of the culture supernatant for nitrite (Green et al., 1982). Briefly, 100 μl of culture supernatant was allowed to react with 100 μl of Griess reagent. The optical density of the assay samples was measured spectrophotometrically at 570 nm. Nitrite concentrations were calculated from a standard curve derived from the reaction of NaNO2 in fresh media. Western Blot Analysis. […] The protein concentration of samples was determined with the detergent compatible protein assay reagent (Bio-Rad Laboratories, CA) using bovine serum albumin (BSA) as the standard. Sample was boiled for 3 min with 0.1 volumes of 10% O-mercaptoethanol and 0.5% bromophenol blue mix. Fifty μg of total cellular protein was resolved by electrophoresis in 8 or 12% polyacrylamide gels, electro-transferred to polyvinylidene difluoride (PVDF) filter and blocked with Tween 20 containing Tris-buffered saline [TBST; 10 mM Trizma base (pH 7.4), 1% Tween 20, and 150 mM NaCl] with 5% skim milk. After incubation with antiserum against iNOS (BD PharMingen, CA), or hRas (Upstate Biotechnology, CA), or phospho-specific MAPK (p42/44) (Signal Transduction), in PVDF buffer for 2 h at room temperature, the filters were washed 3 times with TBST buffer and then incubated with horseradish peroxidase conjugated anti-rabbit or mouse IgG for 1 h. The membranes were autoradiographed by using ECL-plus (Amersham Pharmacia Biotech) after washing with TBST buffer. RT-PCR amplification. […] PCR amplification was conducted in 25 ? l of reaction mixture with 1.0 ? l of cDNA, […] and under the manufacturer's Taq polymerase conditions (Takara, […] Shuzo Co. Ltd, Japan). The sequence of primers used for PCR amplification are as follows; iNOS, (Forward-[NT], Reverse-[NT]), GalT-2 (Forward-[NT], Reverse-[NT]), GAPDH (Forward-[NT], Reverse-[NT]).

In the next data set the test system is Microglia. The conditions noted are these: 10 μM lovastatin or 5 mM NaPA 8 h, LPS 1.0 μg/ml, 24 h.
In another data set the test system is Rat Primary Astrrocytes. As to conditions: LPS 1.0 μg/ml, 24 h.
Another data set deals with Macrophages. The conditions noted are these: 10 μM lovastatin or 5 mM NaPA 8 h, LPS 1.0 μg/ml, 24 h.
The subject of a further data set is KA-treated rats. Put plainly: KA-induced seizure model (epilepsy model), rat hippocampus. Format: in vivo. The conditions noted are these: 3 days after KA. As to the method: FIG. 45. Experimental design for the use of statins as a therapeutic for kinic acid induced seizures (epilepsy model).
FIG. 46. […] The rats were orally pre-treated (7 days before) with atorvastatin (LP; 10 mg/kg) prior to KA (10 mg/kg, i.p.). At 3 days after KA injection, neuronal cell death in hippocampus was examined using cresyl violet stain.
FIG. 47. […] The rats were orally pre-treated (7 days before) with atorvastatin (LP; 10 mg/kg) prior to KA (10 mg/kg, i.p.). At 3 days after KA injection, infiltration of macrophages in the CA1 and CA3 regions of the hippocampus was examined using immunofluorescent labeling against for ED-1, as a marker of monocytes.
The rats were orally pre-treated (7 days before) with atorvastatin (LP; 10 mg/kg) prior to KA (10 mg/kg, i.p.). At 3 days after KA injection, neuronal cell death in the CA1 (A) and CA3 (B) regions of the hippocampus was examined using TUNNEL assay.
FIG. 49. […] The rats were orally pre-treated (7 days before) with lovastatin (Lov; 10 mg/kg) prior to KA (10 mg/kg, i.p.). At 3 days after KA injection, neuronal cell death in hippocampus was examined using cresyl violet stain.
FIG. 50A-C. […] The rats were orally pre-treated (7 days before) with atorvastatin (LP; 10 mg/kg) prior to KA (10 mg/kg, i.p.). At 3 days after KA injection, the expression of inflammatory genes (TNF-α, IL-1β, and iNOS) in hippocampus using real time PCR. The expression of each gene was normalized with GAPDH expression.
FIG. 51A-C. […] The rats were orally pre-treated (7 days before) with lovastatin (Lov; 10 mg/kg) prior to KA (10 mg/kg, i.p.). At 3 days after KA injection, the expression of inflammatory genes (TNF-α, IL-1β, and iNOS) in hippocampus using real time PCR. The expression of each gene was normalized with GAPDH expression.
Seizure index: stage 1, facial clonus; stage 2, nodding; stage 3, forelimb clonus; stage 4, forelimb clonus with rearing; stage 5, rearing, jumping, and falling. The rats were orally pre-treated (7 days before) with lovastatin or atorvastatin (Lov or LP; 10 mg/kg) prior to KA (10 mg/kg, i.p.).

Data set [3] in a line: Comparison of biology of IFN-β, GA and statin + GSNO (Table 2). An excerpt: FIGS. 28-52 provide additional data that show the effectiveness of statins in treating a variety of inflammatory diseases such as multiple sclerosis, spinal cord injury, stroke, and kinic acid induced seizures. Additionally, Table 2 provides data concerning the treatment of multiple sclerosis (MS) with statins as compared to two other approved MS drugs.

Where [4] appears, read: 10 mg/kg orally, 7 days before KA.
[5] abbreviates: PD98059 pretreatment 0.5 hr before LPS, 24 hrs.

Glucosylceramide [GluCer]: the “effect on D-PDMP mediated inhibition of NO production” value in the data set with iNOS [1] (24 hrs) is on record as “did not reverse”. For the same compound, in the data set with iNOS [2], the “effect on D-PDMP inhibition of NO production” value is “no effect”; the “effect on D-PDMP inhibition of iNOS mRNA and protein expression” value is given as “no effect”.
In the case of `O=C([O-])Cc1ccccc1.[Na+]` [NaPA], the TNF-α in the data set on Microglia (LPS only 14.5 +/− 2.1) was 1.3 +/− 0.2 ng/24 h/mg protein; in the data set on Rat Primary Astrrocytes (10 μM lovastatin or 5 mM NaPA 8 h, LPS only 5.3 +/− 0.8), 0.4 +/− 0.06 ng/24 h/mg protein; with Macrophages (LPS only 18.6 +/− 2.3) it was 1.7 +/− 0.2 ng/24 h/mg protein. Besides, the Il-1β is 2.4 +/− 0.2 ng/24 h/mg protein in the data set on Microglia (LPS only 28.2 +/− 3.4); 1.1 +/− 0.2 ng/24 h/mg protein in the data set with Rat Primary Astrrocytes (10 μM lovastatin or 5 mM NaPA 8 h, LPS only 10.4 +/− 1.5); 3.1 +/− 0.4 ng/24 h/mg protein in the data set with Macrophages (LPS only 34.6 +/− 4.5). Besides, the NO with Microglia (LPS only 81.2 +/− 6.9) is given as 6.9 +/− 0.9 n mol/24 h/mg protein; in the data set on Rat Primary Astrrocytes (10 μM lovastatin or 5 mM NaPA 8 h serum free, LPS only 25.3 +/− 3.2), 5.4 +/− 0.6 n mol/24 h/mg protein; in the data set with Macrophages (LPS only 118.5 +/− 12.5) it was 9.5 +/− 0.7 n mol/24 h/mg protein. Further, the IL-6 in the data set on Microglia (LPS only 295.6 +/− 33.5) is listed as 9.3 +/− 1.2 ng/24 h/mg protein; in the data set on Rat Primary Astrrocytes (10 μM lovastatin or 5 mM NaPA 8 h, LPS only 136.5 +/− 16.8), 1.1 +/− 0.2 ng/24 h/mg protein; in the data set on Macrophages (LPS only 350.0 +/− 27.6), 10.2 +/− 1.4 ng/24 h/mg protein.
Turning to `CC(C)c1c(C(=O)Nc2ccccc2)c(-c2ccccc2)c(-c2ccc(F)cc2)n1CC[C@@H](O)C[C@@H](O)CC(=O)O` [Atorvastatin, atorvastatin], in the data set on KA-treated rats (setting [4]), the “apoptosis induced by KA in hippocampus (TUNNEL assay, CA1 and CA3)” value is listed as “inhibited”; the “infiltration of macrophages induced by KA in hippocampus (ED-1)” value is reported as “inhibited”. Besides, the “KA-induced neuronal cell death in hippocampus (cresyl violet stain)” value in the data set with KA-treated rats (statin 10 mg/kg orally, 7 days before KA 10 mg/kg i.p.) is given as “inhibited”. The “expression of inflammatory genes (TNF-α, IL-1β, and iNOS) induced by KA in hippocampus (real time PCR)” value in the data set on KA-treated rats (statin 10 mg/kg orally, 7 days before KA) is “inhibited”.
Take glatiramer acetate [GA]: in data set [3], the “Decrease expression of adhesion molecules” value was “No”, the Decrease inflammatory cytokines result is listed as “Yes”, the “Decreased expression of MHCII” value is reported as “No” and the “Excludes leukocytes from entering CNS” value is recorded as “No”. In data set [3], the “Inhibition of MMPs” value was “No”, the “Inhibition of chemokine expression” value is recorded as “No”, the “Inhibition of clonal expression of co-stimulatory molecules” value was “Yes” and the “Interferences with T-cell activation” value was “Yes”. In data set [3], the “Leukocyte trafficking across the blood brain barrier (BBB)” value is on record as “No”, the Neuroprotection result was “Yes”, the “Protection of BBB” value is listed as “No” and the “Reduced level of co-stimulatory molecules” value is listed as “No”. Further, in data set [3], the “Th1 to Th2 deviation” value is reported as “Yes”.
Consider “5′-CGCTTGAGCGCAGACATCTT-3′ (chemistry not given here) [antisense DNA oligomer, 20-mer antisense oligonucleotide targeted against rat lactosylceramide synthase (GalT-2)]”, for which, in the data set with iNOS [1] (GalT-2 antisense 200 nM oligo, stimulated 2 d after transfection, 6 hrs mRNA, 24 hrs protein), the “iNOS mRNA and protein levels” value is “reduced significantly”. Further, the “LPS/IFN-mediated NO production” value in the data set with iNOS [1] (GalT-2 antisense 200 nM oligo, stimulated 2 d after transfection, 24 hr) is “reduced significantly”.
Take galactosylceramide [GalCer]: the “effect on D-PDMP mediated inhibition of NO production” value in the data set on iNOS [1] (24 hrs) was “did not reverse”.
Take `COc1cccc(-c2cc(=O)c3ccccc3o2)c1N` [PD98059]: in the data set with iNOS [1] (setting [5]), the NO production result is on record as “inhibition” and the iNOS expression entry is on record as “inhibition”.
